Laboratory results from US10941157B2, “Pesticidal compositions and uses thereof” (Gilead Apollo, LLC, priority 2015, dated 2021).
≈ marks a conversion by molar mass, not a printed value.

Legend:
Type in all cases: cell-based
Diplodia maydis (Dm) = assay: In vitro pathogen growth inhibition assay, Dm; details: Stenocarpella maydis, 48 h, ≥90% inhibition; 48 hours vs 2% DMSO control; read-out: Compound Concentration (ppm) sufficient for ≥90% inhibition of growth, Dm
In short: (§1)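 Value reported is the compound concentration reaching ≥90% growth inhibition, from OD readings at 24 and 48 h after blank subtraction, confirmed visually. Inoculum was spores diluted in 17% V8 medium, except Rs, using 1.5 mm mycelial plugs in ¼ PDB; actual compound concentration corrected via OD600.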

Rhizoctonia solani (Rs) = assay: In vitro pathogen growth inhibition assay, Rs (mycelial plugs); details: Rhizoctonia solani, 48 h, ≥90% inhibition; mycelial plugs; 48 hours vs 2% DMSO control; read-out: Compound Concentration (ppm) sufficient for ≥90% inhibition of growth, Rs
In short: as §1

[1] = test system: Saccharomyces cerevisiae (Sc); assay: Yeast growth inhibition assay; details: Saccharomyces cerevisiae, ≥75% inhibition, read-out: Compound Concentration (ppm) sufficient for ≥75% inhibition, Sc
Method: Both tables list the concentration of each compound that was sufficient to ≥90% inhibition of growth for each of the fungal pathogens listed above. In addition, some of compounds were tested in a yeast growth inhibition assay for Saccharomyces cerevisiae (Sc). Table 2 lists the concentration of the tested compound that was sufficient to ≥75% inhibition of Saccharomyces cerevisiae (Sc).

[2] = test system: Collectotrichum graminicola (Cg); assay: In vitro pathogen growth inhibition assay, Cg; details: 48 h, ≥90% inhibition; 48 hours vs 2% DMSO control; read-out: Compound Concentration (ppm) sufficient for ≥90% inhibition of growth, Cg
In short: as §1

[3] = test system: Phytophthora capsici (Pc); assay: In vitro pathogen growth inhibition assay, Pc; details: 48 h, ≥90% inhibition, 48 hours vs 2% DMSO control, read-out: Compound Concentration (ppm) sufficient for ≥90% inhibition of growth, Pc
In short: as §1

[4] = test system: Fusarium moniliforme (Fm); assay: In vitro pathogen growth inhibition assay, Fm; details: Fusarium verticillioides; ≥90% inhibition; 48 hours vs 2% DMSO control; read-out: Compound Concentration (ppm) sufficient for ≥90% inhibition of growth, Fm
In short: as §1

Septoria tritici (St) = assay: In vitro pathogen growth inhibition assay, St; details: Zymoseptoria tritici, 48 h, ≥90% inhibition; 48 hours vs 2% DMSO control; read-out: Compound Concentration (ppm) sufficient for ≥90% inhibition of growth, St
In short: as §1

Botrtyis cinerea (Bc) = assay: In vitro pathogen growth inhibition assay, Bc; details: 48 h, ≥90% inhibition; 48 hours vs 2% DMSO control; read-out: Compound Concentration (ppm) sufficient for ≥90% inhibition of growth, Bc
In short: as §1

[5] = test system: Fusarium virguliforme (Fv); assay: In vitro pathogen growth inhibition assay, Fv; details: ≥90% inhibition, 48 hours vs 2% DMSO control, read-out: Compound Concentration (ppm) sufficient for ≥90% inhibition of growth, Fv
In short: as §1

| IC90 (Diplodia maydis (Dm)) [µg/mL] | IC90 (Rhizoctonia solani (Rs)) [µg/mL] | IC90 [2] [µg/mL] | IC90 [3] [µg/mL] | IC90 [4] [µg/mL] | IC90 (Septoria tritici (St)) [µg/mL] | IC90 (Botrtyis cinerea (Bc)) [µg/mL] | IC90 [5] [µg/mL] | Structure (SMILES) | IC75 [1] [µg/mL] |
| --- | --- | --- | --- | --- | --- | --- | --- | --- | --- |
| 10 (≈ 17 µM) | 50 (≈ 85.2 µM) | 10 (≈ 17 µM) | 50 (≈ 85.2 µM) | 0.4 (≈ 0.682 µM) | > 50 | 10 (≈ 17 µM) | 10 (≈ 17 µM) | COc1ccc(F)cc1[C@H](Cn1c(=O)n(C(C)(C)C(N)=O)c(=O)c2c(C)c(-c3ncco3)sc21)OC1CCOCC1 [Compound I-101] | 3.7 (≈ 6.31 µM) |
| 2 (≈ 3.41 µM) | ≥ 2 | 2 (≈ 3.41 µM) | 10 (≈ 17 µM) | 0.4 (≈ 0.682 µM) | ≥ 50 | 2 (≈ 3.41 µM) | 2 (≈ 3.41 µM) | COc1ccc(F)cc1[C@H](Cn1c(=O)n(C(C)(C)C(N)=O)c(=O)c2c(C)c(-n3nccn3)sc21)OC1CCOCC1 [Compound I-102] | 1.2 (≈ 2.05 µM) |
| 10 (≈ 16.6 µM) | 50 (≈ 83.2 µM) | 50 (≈ 83.2 µM) | > 50 | 0.4 (≈ 0.666 µM) | > 10 | 2 (≈ 3.33 µM) | 2 (≈ 3.33 µM) | COc1ccc(F)cc1[C@H](Cn1c(=O)n(C(C)(C)C(N)=O)c(=O)c2c(C)c(-c3ncco3)sc21)O[C@H]1CC[C@@H](O)CC1 [Compound I-103] | 1.2 (≈ 2 µM) |
| 10 (≈ 16.3 µM) | 10 (≈ 16.3 µM) | > 50 | > 10 | 0.4 (≈ 0.651 µM) | > 50 | 2 (≈ 3.25 µM) | 10 (≈ 16.3 µM) | COc1ccc(F)cc1[C@H](Cn1c(=O)n(C(C)(C)C(N)=O)c(=O)c2c(C)c(-c3ncco3)sc21)OCC1CCC(O)CC1 (stereo partly drawn) [Compound I-104] | 11 (≈ 17.9 µM) |
| 10 (≈ 16.4 µM) | > 50 | 50 (≈ 82.1 µM) | > 50 | 0.4 (≈ 0.657 µM) | > 50 | 2 (≈ 3.29 µM) | 10 (≈ 16.4 µM) | CCNC(=O)C(C)(C)n1c(=O)c2c(C)c(-c3ncco3)sc2n(C[C@H](OC2CCC(=O)CC2)c2ccccc2OC)c1=O [Compound I-105] | 1.2 (≈ 1.97 µM) |
| 2 (≈ 3.08 µM) | 50 (≈ 77.1 µM) | 10 (≈ 15.4 µM) | > 50 | 0.4 (≈ 0.617 µM) | > 50 | 2 (≈ 3.08 µM) | 2 (≈ 3.08 µM) | COc1ccccc1[C@H](Cn1c(=O)n(C(C)(C)C(=O)N2CCCCC2)c(=O)c2c(C)c(-c3ncco3)sc21)OC1CCC(=O)CC1 [Compound I-106] | 33.3 (≈ 51.3 µM) |
| ≥ 0.4 | > 50 | > 50 | > 50 | 0.4 (≈ 0.595 µM) | > 50 | 0.4 (≈ 0.595 µM) | > 50 | COc1ccccc1[C@H](Cn1c(=O)n(C(C)(C)C(=O)OCc2ccccc2)c(=O)c2c(C)c(-c3ncco3)sc21)OC1CCC(=O)CC1 [Compound I-107] | > 33.3 |
| 10 (≈ 17.9 µM) | 50 (≈ 89.3 µM) | 10 (≈ 17.9 µM) | > 50 | 0.4 (≈ 0.715 µM) | > 50 | 2 (≈ 3.57 µM) | 2 (≈ 3.57 µM) | CCNC(=O)C(C)(C)n1c(=O)c2c(C)c(C(=O)OCC)sc2n(C[C@H](OC(C)C)c2ccccc2OC)c1=O [Compound I-108] | 11.1 (≈ 19.8 µM) |
| 2 (≈ 3.32 µM) | 50 (≈ 83.1 µM) | 10 (≈ 16.6 µM) | > 50 | 0.4 (≈ 0.665 µM) | > 50 | 0.4 (≈ 0.665 µM) | 10 (≈ 16.6 µM) | CCOC(=O)c1sc2c(c1C)c(=O)n(C(C)(C)C(=O)N1CCOCC1)c(=O)n2C[C@H](OC(C)C)c1ccccc1OC [Compound I-109] | 11.1 (≈ 18.4 µM) |
| 10 (≈ 15.4 µM) | 50 (≈ 76.8 µM) | > 50 | > 50 | 0.4 (≈ 0.615 µM) | > 50 | 2 (≈ 3.07 µM) | 2 (≈ 3.07 µM) | COc1ccccc1[C@H](Cn1c(=O)n(C(C)(C)C(=O)N2CCCCC2)c(=O)c2c(C)c(-c3ncco3)sc21)O[C@H]1CC[C@@H](O)CC1 [Compound I-110] | 33.3 (≈ 51.2 µM) |
| 10 (≈ 15.7 µM) | 10 (≈ 15.7 µM) | 10 (≈ 15.7 µM) | > 50 | 0.4 (≈ 0.628 µM) | 50 (≈ 78.5 µM) | 2 (≈ 3.14 µM) | 2 (≈ 3.14 µM) | COc1ccccc1[C@H](Cn1c(=O)n(C(C)(C)C(=O)N2CCCC2)c(=O)c2c(C)c(-c3ncco3)sc21)O[C@H]1CC[C@@H](O)CC1 [Compound I-111] | 3.7 (≈ 5.81 µM) |
